The text below walks through data of EP0552417B1, “Cyclic peptides and use thereof” (priority 1991, dated 1993).

For test [1], the target named is T1, endothelin receptor A (ETA) (Sus scrofa, UniProt Q29010).
T1 construct: A membrane fraction prepared from the porcine heart; from tissue; host or cells: porcine heart membrane fraction
T1 sequence (Q29010 21-427): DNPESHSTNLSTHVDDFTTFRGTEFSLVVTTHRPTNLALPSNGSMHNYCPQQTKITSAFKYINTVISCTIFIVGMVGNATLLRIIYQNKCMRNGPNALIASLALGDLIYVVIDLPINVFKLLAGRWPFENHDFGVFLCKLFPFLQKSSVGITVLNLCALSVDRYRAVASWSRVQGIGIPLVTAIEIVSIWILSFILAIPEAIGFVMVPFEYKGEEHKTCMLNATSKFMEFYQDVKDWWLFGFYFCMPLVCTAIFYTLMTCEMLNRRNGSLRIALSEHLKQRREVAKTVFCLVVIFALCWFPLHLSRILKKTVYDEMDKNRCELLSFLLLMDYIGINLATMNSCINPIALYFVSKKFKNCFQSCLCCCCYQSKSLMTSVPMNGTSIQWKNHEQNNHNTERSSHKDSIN
Description: Assay of affinity for receptor (1): binding activity on ETA receptor, 125I-labeled endothelin-1, porcine heart membrane fraction. More on the design: key: relative specific activity; reference cyclic pentapeptide ETA binding = 1.0. The note with it: specific activity, taking the binding activity of control cyclo[-D-Glu-Ala-D-aIle-Leu-D-Trp-] on receptor A as 1.0, 25°C, 1 hour. The procedure, abridged:
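Porcine heart membranes (0.15 mg/ml) incubated with 125I-endothelin-1 and test peptide for 1 h at 25°C, then centrifuged; pellet-bound radioactivity counted by gamma counter. Values given as specific activity relative to reference cyclo[-D-Glu-Ala-D-aIle-Leu-D-Trp-], set at 1.0.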

For test [2], the target named is T2, endothelin receptor B (ETB) (Bos taurus, UniProt P28088).
T2 construct: A membrane fraction prepared from the bovine brain; from tissue; host or cells: bovine brain membrane fraction
T2 sequence (P28088 27-441): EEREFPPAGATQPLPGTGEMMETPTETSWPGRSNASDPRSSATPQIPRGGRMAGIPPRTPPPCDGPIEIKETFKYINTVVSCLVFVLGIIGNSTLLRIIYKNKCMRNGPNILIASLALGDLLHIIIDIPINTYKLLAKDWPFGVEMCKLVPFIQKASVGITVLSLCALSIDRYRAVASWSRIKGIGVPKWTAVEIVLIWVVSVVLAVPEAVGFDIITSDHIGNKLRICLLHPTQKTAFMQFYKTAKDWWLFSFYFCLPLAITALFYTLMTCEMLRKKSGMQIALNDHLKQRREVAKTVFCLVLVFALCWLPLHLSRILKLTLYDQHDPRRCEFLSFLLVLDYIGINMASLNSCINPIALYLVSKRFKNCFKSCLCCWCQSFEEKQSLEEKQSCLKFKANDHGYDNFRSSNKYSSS
Description: Assay of affinity for receptor (2): binding activity on ETB receptor *1, 125I-labeled endothelin-1, bovine brain membrane fraction. The following applies: specific activity, taking the binding activity of the compound of Example 8 on receptor B as 100, 25°C, 1 hour. Here is the method:
Assay of Affinity for Receptor (2) ... Binding Activity on ETB Receptor *1
A membrane fraction prepared from the bovine brain was diluted to 0.15 mg/ml by using a buffer solution for assay, and 100 µl of the resulting suspension of the membrane fraction was poured into each assay tube to use for assay. To this suspension of the membrane fraction was added 2 µl of 5 nM ^125I labeled endothelin-1 solution. Further, 3 µl of a test peptide solution was added thereto, followed by incubation at a temperature of 25°C for 1 hour. Then, the resulting suspension was diluted with 900 µl of the buffer solution for assay cooled with ice, and thereafter separated into a supernatant and a precipitate by centrifugation at 12,000 X g for 10 minutes. Cell membranes and an endothelin receptor B (ETB) embedded therein were contained in the precipitate, and radioactive iodine-labeled endothelin bound to the receptor was also recovered in the precipitate. Accordingly, the amount of radioactive iodine-labeled endothelin bound to the endothelin receptor B (ETB) was determined by measuring the amount of radioactive iodine contained in the precipitate with a gamma-ray counter. The numerical value of ETB shown in Table 1 is the value of specific activity, taking the binding activity of the compound of Example 8 on the receptor B as 100.

A further test relates to ETB. Description: ETB radio receptor assay *2, 125I-endothelin-1, guinea pig kidney crude membrane fraction. Type of test: binding, Guinea pigs. The note with it: relative activity, 37 °C, 90 minutes. The procedure, abridged: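 Radioligand binding used crude guinea pig kidney membranes (2.1 µg protein) with 740 Bq 125I-endothelin-1. Incubation was 90 min at 37 °C in 50 mM Tris-HCl pH 7.4, 0.1 mM PMSF, 1 mM EDTA, 0.2% BSA. Bound radioactivity was collected by GF/B filtration and measured by gamma counting.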

Each structure is given as a SMILES string. Non-standard residues stand in square brackets, D forms with d. Residues, ends and D or L forms follow the SMILES beside them. *: point of attachment. Hyp = O=C(O)[C@@H]1C[C@@H](O)CN1; d2Thi = N[C@H](Cc1cccs1)C(=O)O; Pip = O=C(O)[C@@H]1CCCCN1; Aze = O=C(O)[C@@H]1CCN1; For = O=C*

For the compound `CC(C)C[C@@H]1NC(=O)[C@@H](CC(C)C)NC(=O)[C@H](CC(=O)O)NC(=O)[C@@H]2CCCN2C(=O)[C@@H](CC(=O)O)NC(=O)[C@@H](Cc2c[nH]c3ccccc23)NC1=O` [Example 9, cyclo[-D-Asp-Pro-Asp-D-Leu-Leu-D-Trp-]] (cyclo(D[dL]L[dW][dD]P)), the “Binding Activity on ET Receptor (R. act.) ETA” value in test [1] is 56. In addition, in test [2], the “Binding Activity on ET Receptor (R. act.) ETB*1” value came to 140. For the same compound, the “Binding Activity on ET Receptor (R. act.) ETB*2” value in the test on ETB worked out at 67.

For the compound `CC(C)C[C@@H]1NC(=O)[C@@H](CC(C)C)NC(=O)[C@H](CC(=O)O)NC(=O)[C@@H]2C[C@@H](O)CN2C(=O)[C@@H](CC(=O)O)NC(=O)[C@@H](Cc2c[nH]c3ccccc23)NC1=O` [Example 14, cyclo[-D-Asp-Hyp-Asp-D-Leu-Leu-D-Trp-]] (cyclo(D[dL]L[dW][dD][Hyp])), the “Binding Activity on ET Receptor (R. act.) ETA” value in test [1] amounted to 70. For the same compound, in test [2], the “Binding Activity on ET Receptor (R. act.) ETB*1” value came out at 160. Also, the “Binding Activity on ET Receptor (R. act.) ETB*2” value with ETB is 120.

Turning to `CC(C)C[C@@H]1NC(=O)[C@@H](CC(C)C)NC(=O)[C@H](CC(=O)O)NC(=O)[C@H](CC(=O)O)NC(=O)[C@@H](CC(=O)O)NC(=O)[C@@H](Cc2c[nH]c3ccccc23)NC1=O` [Example 16, Cyclo[-D-Asp-Asp-Asp-D-Leu-Leu-D-Trp-]] (cyclo(DD[dL]L[dW][dD])), the “Binding Activity on ET Receptor (R. act.) ETA” value in test [1] is listed as 10. In test [2], the “Binding Activity on ET Receptor (R. act.) ETB*1” value was 14. The “Binding Activity on ET Receptor (R. act.) ETB*2” value with ETB came to 34.

Turning to `CC(C)C[C@@H]1NC(=O)[C@@H](CC(C)C)NC(=O)[C@H](CC(=O)O)NC(=O)[C@H](Cc2cn(C=O)c3ccccc23)NC(=O)[C@@H](CC(=O)O)NC(=O)[C@@H](Cc2c[nH]c3ccccc23)NC1=O` [Example 22, Cyclo[-D-Asp-Trp(For)-Asp-D-Leu-Leu-D-Trp-]] (cyclo(D[dL]L[dW][dD]W(For))), in test [1], the “Binding Activity on ET Receptor (R. act.) ETA” value is 8.3. In addition, the “Binding Activity on ET Receptor (R. act.) ETB*1” value in test [2] amounted to 6.7. Moreover, in the test on ETB, the “Binding Activity on ET Receptor (R. act.) ETB*2” value was found to be 15.

As to `CC(C)C[C@@H]1NC(=O)[C@@H](CC(C)C)NC(=O)[C@H](CC(=O)O)NC(=O)[C@@H]2CCN2C(=O)[C@@H](CC(=O)O)NC(=O)[C@@H](Cc2c[nH]c3ccccc23)NC1=O` [Example 25, Cyclo[-D-Asp-Azc-Asp-D-Leu-Leu-D-Trp-]] (cyclo([Aze]D[dL]L[dW][dD])), the “Binding Activity on ET Receptor (R. act.) ETA” value in test [1] is on record as 30. Further, the “Binding Activity on ET Receptor (R. act.) ETB*1” value in test [2] is reported as 25. For the same compound, the “Binding Activity on ET Receptor (R. act.) ETB*2” value in the test on ETB is 57.

As for `CC(C)C[C@@H]1NC(=O)[C@@H](CC(C)C)NC(=O)[C@H](CC(=O)O)NC(=O)[C@@H]2CCCCN2C(=O)[C@@H](CC(=O)O)NC(=O)[C@@H](Cc2c[nH]c3ccccc23)NC1=O` [Example 26, Cyclo[-D-Asp-Pip-Asp-D-Leu-Leu-D-Trp-]] (cyclo(D[dL]L[dW][dD][Pip])), the “Binding Activity on ET Receptor (R. act.) ETA” value in test [1] is listed as 25. Moreover, in test [2], the “Binding Activity on ET Receptor (R. act.) ETB*1” value is 38. Also, in the test on ETB, the “Binding Activity on ET Receptor (R. act.) ETB*2” value is reported as 73.

On to `CC(C)C[C@@H]1NC(=O)[C@@H](Cc2cccs2)NC(=O)[C@H](CC(=O)O)NC(=O)[C@H](Cc2c[nH]c3ccccc23)NC(=O)[C@@H](CC(=O)O)NC(=O)[C@@H](Cc2c[nH]c3ccccc23)NC1=O` [Example 50, Cyclo[-D-Asp-Trp-Asp-D-Thi-Leu-D-Trp-]] (cyclo(D[d2Thi]L[dW][dD]W)), for which the “Binding Activity on ET Receptor (R. act.) ETA” value in test [1] was 4. Further, in test [2], the “Binding Activity on ET Receptor (R. act.) ETB*1” value is given as 350. Besides, in the test with ETB, the “Binding Activity on ET Receptor (R. act.) ETB*2” value is recorded as 57.

As to `CC(C)C[C@@H]1NC(=O)[C@@H](C(C)C)NC(=O)[C@H](CC(=O)O)NC(=O)[C@H](Cc2c[nH]c3ccccc23)NC(=O)[C@@H](CC(=O)O)NC(=O)[C@@H](Cc2c[nH]c3ccccc23)NC1=O` [Example 52, Cyclo[-D-Asp-Trp-Asp-D-Val-Leu-D-Trp-]] (cyclo(D[dV]L[dW][dD]W)), in test [1], the “Binding Activity on ET Receptor (R. act.) ETA” value is recorded as 75. Besides, the “Binding Activity on ET Receptor (R. act.) ETB*1” value in test [2] stood at 240. In addition, the “Binding Activity on ET Receptor (R. act.) ETB*2” value with ETB is given as 100.

With `CC(C)C[C@H]1NC(=O)[C@H](CC(=O)O)NC(=O)[C@H](C)NC(=O)[C@@H](CC(=O)O)NC(=O)[C@@H](Cc2c[nH]c3ccccc23)NC(=O)[C@H](Cc2c[nH]c3ccccc23)NC1=O` [Example 58, Cyclo[-D-Asp-Ala-Asp-D-Leu-Trp-D-Trp-]] (cyclo(AD[dL]W[dW][dD])), the “Binding Activity on ET Receptor (R. act.) ETA” value in test [1] is on record as 0.7. In addition, the “Binding Activity on ET Receptor (R. act.) ETB*1” value in test [2] worked out at 6.7. In addition, in the test with ETB, the “Binding Activity on ET Receptor (R. act.) ETB*2” value is 22.

Consider `CC(C)C[C@@H]1NC(=O)[C@@H](Cc2ccccc2)NC(=O)[C@H](CC(=O)O)NC(=O)[C@H](Cc2c[nH]c3ccccc23)NC(=O)[C@@H](CC(=O)O)NC(=O)[C@@H](Cc2c[nH]c3ccccc23)NC1=O` [Example 60, Cyclo[-D-Asp-Trp-Asp-D-Phe-Leu-D-Trp-]] (cyclo(D[dF]L[dW][dD]W)), for which, in test [1], the “Binding Activity on ET Receptor (R. act.) ETA” value was 1. Moreover, the “Binding Activity on ET Receptor (R. act.) ETB*1” value in test [2] was 210. For the same compound, the “Binding Activity on ET Receptor (R. act.) ETB*2” value in the test with ETB is reported as 44.
